Data published in patent US20060173069A1, “Therapeutic agent for hyperpotassemia and bone disease” (RIKEN, priority 2003, published 2006).
pEC50: −log10 of the molar value. Positions of bridges follow the written chain, without caps; N, C: chain ends. No end group written: not given here.

How the values were obtained:
[1] = test system: mature osteoclasts; test: Cell-death (apoptosis) inducing activity on mature osteoclasts, number of TRAP-stained multinuclear cells; assay type: cell-based, mouse; conditions: Mus musculus, Osteoclast; RAW264-derived mature osteoclasts, 24 hours incubation, TRAP staining; read-out: ED50 level of cell-death inducing activity to mature osteoclasts, Number of cells
Protocol: Using 29 different reveromycin A derivatives synthesized as described above, the cell-death inducing activities on the mature osteoclasts and undifferentiated macrophage-like cells derived from a mouse (RAW264 cells) were examined, respectively. The RAW264 cells, a mouse-macrophage cell line, were suspended in a 10% FBS-αMEM (manufactured by Gibco BRL Co., Ltd.) and then 12,000 cells/100 μl were inoculated in a 96-well plate. After 1-hour incubation, 100 μl of a culture medium containing RANKL ([…]) and PD98059 (40 μM) were added (final concentration: RANKL […] and PD98059 20 μM) and then incubated for 4 days to allow the differentiation of the cells to mature osteoclasts (J. Biol. Chem. Vol. 277, pp. 47366-47372 (2002)). Furthermore, on the second day of the culture, the half of the culture medium was replaced with new one. From each well of the plate where the cells were differentiated to the mature osteoclasts, 100 μl/well of the culture medium was removed. […] The apoptosis inducing activity was confirmed by the observation of agglutination of nuclei stained with 10 μM Hoechst 33258 for 10-minututes.

[2] = test system: undifferentiated RAW264 cells; test: Cell-death inducing activity on undifferentiated RAW264 cells, MTT method; assay type: cell-based, mouse; conditions: Mus musculus, RAW264.7; 24 hours incubation, MTT; read-out: ED50 level of cell-death inducing activity to undifferentiated RAW264 cells, MTT
Protocol: The cell-death inducing activities to the undifferentiated RAW264 cells were investigated by the MTT method (J. Immunol. Methods, Vol. 65, pp 55-63 (1983). The RAW 264 cells were plated on a 96-well plate at a density of 40,000 cells/100 μl and then incubated for 24 hours. After the 24-hour incubation, 50 μl of a culture medium containing a three-fold concentration of the drug was added and then incubated for 24 hours to investigate the cell-death inducing activity. Two hours before the measurement of the cell-death inducing activity, 15 μl of 0.5% MTT-PBS (phosphate buffer saline) was added and incubated. After that, the residue from which the culture solution was removed was dissolved in 100 μl of DMSO (dimethyl sulfoxide) and the absorbance at 570 nm (a reference wave length of 630 nm) was measured, followed by calculating the ED50 level of the cell-death inducing activity.

[3] = test system: bone resorption due to parathyroid hormone (PTH); test: Serum calcium in TPTX rats with hypercalcemia by continuous PTH infusion; assay type: in vivo, SD rats; conditions: comparison of calcitonin with reveromycin A derivatives
Protocol: The bone resorption inhibitory effects of the reveromycin A derivatives were examined by measuring the level of serum calcium released in the blood by the action of bone resorption. SD rats were subjected to an operation of extracting the thyroid glands and the parathyroid glands (TPTX). Next day, a decrease in serum calcium was confirmed and then the continuous infusion of the parathyroid hormone (PTH) was carried out, thereby creating rats each having hypercalcemia by accelerating the bone resorption.
At 12 hours from the initiation of PTH injection, the reveromycin A derivatives ([…]) or a sodium salt thereof ([…]) were administered and the level of serum calcium was then measured in time-course for 24 hours.

Row | Molecule | pEC50 [1] | CC50 [2] [µM] | duration of inhibitory action on bone resorption [3]
1 | CCCC[C@]1([C@@H](O)/C=C/C(C)=C/C(=O)O)CC[C@]2(CC[C@H](C)[C@@H](C/C=C(C)/C=C/[C@H](O)[C@@H](C)/C=C/C(=O)O)O2)O1 [Compound 10] | < 4.27 | > 178 | 
2 | CCCC[C@]1(C(/C=C/C(C)=C/C(=O)O)OC(=O)CCC(=O)O)CC[C@]2(CC[C@H](C)[C@@H](C/C=C(C)/C=C/[C@H](O)[C@@H](C)/C=C/C(=O)O)O2)O1 (some centres unmarked) [Compound 1] | < 4.35 | 132 | 
3 | CCCC[C@@]1(OC(=O)CCC(=O)O)CC[C@]2(CC[C@H](C)[C@@H](C/C=C(\C)CO)O2)O[C@H]1/C=C/C(C)=C/C(=O)O [Compound 4] | < 5.25 | > 5.6 | 
4 | CCCC[C@@]1(OC(=O)CCC(=O)O)CC[C@]2(CC[C@H](C)[C@@H](C/C=C(C)/C=C/[C@H](O)[C@@H](C)/C=C/C(=O)OC)O2)O[C@H]1/C=C/C(C)=C/C(=O)O [Compound 15] | 5.24 | 25 | 
5 | CCCC[C@@]1(O)CC[C@]2(CC[C@H](C)[C@@H](C/C=C(C)/C=C/[C@H](OC)[C@@H](C)/C=C/C(=O)OC)O2)O[C@H]1/C=C/C(C)=C/C(=O)OC (mixture of isomers) [Compound 7] | < 4.29 | > 169 | 
6 | CCCC[C@@]1(OC(=O)CCC(=O)O)CC[C@]2(CC[C@H](C)[C@@H](C/C=C(C)/C=C/[C@H](O)[C@@H](C)/C=C/C(=O)OC)O2)O[C@H]1/C=C/C(C)=C/C(=O)OC [Compound 13] | 5.60 | 7.6 | 
7 | CCCC[C@@]1(OC(=O)CCC(=O)OC)CC[C@]2(CC[C@H](C)[C@@H](C/C=C(C)/C=C/[C@H](O)[C@@H](C)/C=C/C(=O)O)O2)O[C@H]1/C=C/C(C)=C/C(=O)O [Compound 21] | 5.14 | 21 | 
8 | calcitonin (CGNLSTCMLGTYTQDFNKFHTFPQTAIGVGAP-NH2; disulfide 1-7; ends not checked; UniProt P01258 85-116, looked up) [reference compound] |  |  | shorter inhibitory action on bone resorption
9 | CCCC[C@@]1(OC(=O)CCC(=O)O)CC[C@]2(CC[C@H](C)[C@@H](C/C=C(C)/C=C/[C@@H](C)O)O2)O[C@H]1/C=C/C(C)=C/C(=O)OC [Compound 25] | < 4.77 | > 17 | 
10 | CCCC[C@@]1(OC(=O)CCC(=O)O)CC[C@]2(CC[C@H](C)[C@@H](C/C=C(C)/C=C/[C@H](O)[C@@H](C)/C=C/C(=O)O)O2)O[C@H]1/C=C/C(C)=C/C(=O)O [Reveromycin A, reveromycin A, reference compound] | 6.74 | 24 | 
11 | CCCC[C@@]1(OC)CC[C@]2(CC[C@H](C)[C@@H](C/C=C(C)/C=C/[C@H](O)[C@@H](C)/C=C/C(=O)O)O2)O[C@H]1/C=C/C(C)=C/C(=O)O [Compound 1390-II] | < 5.28 |  | 
12 | CCCC[C@@]1(OC(=O)CCC(=O)O)CC[C@]2(CC[C@H](C)[C@@H](CCO)O2)O[C@H]1/C=C/C(C)=C/C(=O)O [Compound 3] | < 5.22 | > 6 | 
13 | CCCC[C@@]1(OC(=O)CCC(=O)OC)CC[C@]2(CC[C@H](C)[C@@H](C/C=C(C)/C=C/[C@H](O)[C@@H](C)/C=C/C(=O)O)O2)O[C@H]1/C=C/C(C)=C/C(=O)OC [Compound 14] | 5.48 | 25 | 
14 | CCCC[C@@]1(OC(=O)CCC(=O)O)CC[C@]2(CC[C@H](C)[C@@H](C/C=C(C)/C=C/[C@H](OC)[C@@H](C)/C=C/C(=O)O)O2)O[C@H]1/C=C/C(C)=C/C(=O)O [Compound 26] | < 4.36 | > 148 | 
15 | CCCC[C@@]1(OC(=O)CCC(=O)OC)CC[C@]2(CC[C@H](C)[C@@H](C/C=C(C)/C=C/[C@H](O[Si](C)(C)C(C)(C)C)[C@@H](C)/C=C/C(=O)OC)O2)O[C@H]1/C=C/C(C)=C/C(=O)O [Compound 12] | 6.22 | 1 | 
16 | CCCC[C@@]1(O)CC[C@]2(CC[C@H](C)[C@@H](C/C=C(C)/C=C/[C@H](O)[C@@H](C)/C=C/C(=O)O)O2)O[C@H]1/C=C/C(C)=C/C(=O)O (mixture of isomers) [Compound 11] | 4.39 | > 178 | 
17 | CCCC[C@@]1(OC(=O)CCC(=O)O)CC[C@]2(CC[C@H](C)[C@@H](C/C=C(C)/C=C/C(C)O)O2)O[C@H]1/C=C/C(C)=C/C(=O)OC (some centres unmarked) [Compound 23] | < 4.77 | > 17 | 
18 | CCCC[C@@]1(OC(=O)CCC(=O)O)CC[C@]2(CC[C@H](C)[C@@H](C/C=C(C)/C=C/[C@H](O)[C@@H](C)/C=C/C(=O)O)O2)O[C@H]1/C=C/C(C)=C/C(=O)OC [Compound 22] | 5.03 | 53 | 
19 | CCCC[C@]1(C(/C=C/C(C)=C/C(=O)O)OC)CC[C@]2(CC[C@H](C)[C@@H](C/C=C(C)/C=C/[C@H](O)[C@@H](C)/C=C/C(=O)O)O2)O1 (some centres unmarked) [Compound 1392-II] | < 4.28 | > 174 | 
20 | CCCC[C@@]1(OC(=O)CCC(=O)O)CC[C@]2(CC[C@H](C)[C@@H](C/C=C(\C)COC(=O)CCC(=O)O)O2)O[C@H]1/C=C/C(C)=C/C(=O)O [Compound 5] | < 4.33 | > 157 | 
21 | CCCC[C@@]1(OC(=O)CCC(=O)O)CC[C@]2(CC[C@H](C)[C@@H](C/C=C(C)/C=C/C(O)c3ccccc3)O2)O[C@H]1/C=C/C(C)=C/C(=O)OC (some centres unmarked) [Compound 24] | < 4.82 | > 15 | 
22 | CCCC[C@@]1(OC(=O)CCC(=O)OC)CC[C@]2(CC[C@H](C)[C@@H](C/C=C(C)/C=C/[C@H](O)[C@@H](C)/C=C/C(=O)OC)O2)O[C@H]1/C=C/C(C)=C/C(=O)OC [Compound 16] | 4.59 | > 142 | 
23 | CCCC[C@@]1(OC)CC[C@]2(CC[C@H](C)[C@@H](C/C=C/C(C)=C/C(=O)O)O2)O[C@H]1/C=C/C(C)=C/C(=O)O [Compound 17] | < 4.21 |  | 
24 | CCCC[C@@]1(OC(=O)CCC(=O)OC)CC[C@]2(CC[C@H](C)[C@@H](C/C=C(C)/C=C/C(O)c3ccccc3)O2)O[C@H]1/C=C/C(C)=C/C(=O)OC (some centres unmarked) [Compound 20] | < 4.35 | > 150 | 
25 | CCCC[C@@]1(OC(=O)CCC(=O)OC)CC[C@]2(CC[C@H](C)[C@@H](C/C=C(C)/C=C/C(C)O)O2)O[C@H]1/C=C/C(C)=C/C(=O)OC (some centres unmarked) [Compound 19] | 4.44 | > 50 | 
